The source made the active and inactive calls. The calls are words filed in the database; no cut-off is given here.

The results in this text go back to ChEMBL document CHEMBL1158093, “Isolation, structure elucidation, and biological evaluation of 15-amido-3-demethoxy-2alpha,3alpha-methylenedioxyerythroculine, a new alkaloid from Hyperbaena valida” (J Nat Prod, 2006).

Assay [1] concerns the target T1, Neuronal acetylcholine receptor; alpha3/beta4 (Rattus norvegicus, UniProt P04757+P12392). The assay can be described thus: Antagonist activity at rat alpha3beta4 nicotinic receptor expressed in KXalpha-3-beta-4R2 cells assessed as nicotine-induced calcium fluorescence. The assay is classed as functional, cell-based.
The target of assay [2] is Neuronal acetylcholine receptor; alpha3/beta4 (Rattus norvegicus) (UniProt P04757+P12392). The assay can be described thus: Agonist activity at rat alpha3beta4 nicotinic receptor expressed in KXalpha-3-beta-4R2 cells assessed as nicotine-induced calcium fluorescence. The class given is functional, cell-based.
Assay [3] addresses T1, Neuronal acetylcholine receptor; alpha3/beta4. The assay can be described thus: Activity at rat alpha3beta4 nicotinic receptor expressed in KXalpha-3-beta-4R2 cells assessed as nicotine-induced 86Rb+ efflux. The assay is classed as cell-based.

T1 sequence (P04757 whole entry): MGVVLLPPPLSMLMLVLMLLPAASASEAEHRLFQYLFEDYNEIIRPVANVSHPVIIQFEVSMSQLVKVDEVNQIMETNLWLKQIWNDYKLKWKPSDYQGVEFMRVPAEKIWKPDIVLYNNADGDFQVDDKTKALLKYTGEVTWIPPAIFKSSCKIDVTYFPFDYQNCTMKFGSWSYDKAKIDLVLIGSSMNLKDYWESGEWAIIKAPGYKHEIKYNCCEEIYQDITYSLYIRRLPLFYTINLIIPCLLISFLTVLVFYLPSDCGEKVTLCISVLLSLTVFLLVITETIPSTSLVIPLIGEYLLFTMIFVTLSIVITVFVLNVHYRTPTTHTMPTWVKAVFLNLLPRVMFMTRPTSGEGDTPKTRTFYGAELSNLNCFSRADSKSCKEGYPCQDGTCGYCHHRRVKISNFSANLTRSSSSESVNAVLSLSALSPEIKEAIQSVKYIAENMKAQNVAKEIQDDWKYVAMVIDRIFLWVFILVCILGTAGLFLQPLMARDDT
T1 sequence (P12392 whole entry): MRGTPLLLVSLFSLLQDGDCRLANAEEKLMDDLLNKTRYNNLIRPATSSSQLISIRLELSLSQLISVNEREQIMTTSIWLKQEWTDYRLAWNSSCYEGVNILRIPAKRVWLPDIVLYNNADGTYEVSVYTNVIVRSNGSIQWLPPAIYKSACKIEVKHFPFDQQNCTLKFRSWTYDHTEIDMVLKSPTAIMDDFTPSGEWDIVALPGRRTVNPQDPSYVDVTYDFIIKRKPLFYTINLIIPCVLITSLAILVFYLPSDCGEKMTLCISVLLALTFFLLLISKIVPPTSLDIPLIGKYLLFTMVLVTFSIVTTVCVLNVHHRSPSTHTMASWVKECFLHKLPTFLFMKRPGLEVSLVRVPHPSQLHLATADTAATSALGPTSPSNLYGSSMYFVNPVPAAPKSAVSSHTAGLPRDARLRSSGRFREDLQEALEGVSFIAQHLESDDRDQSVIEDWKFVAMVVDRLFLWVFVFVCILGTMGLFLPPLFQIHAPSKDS

Regarding `COC(=O)c1cc2c(cc1OC)CCN1CCC3=C[C@@H]4OCO[C@@H]4C[C@]321`, in assay [1], the IC50 worked out at 77 µM. Moreover, the result in assay [2] was inactive.

In the case of `CO[C@H]1CC=C2CCN3CCC4=C(CC(=O)OC4)[C@]23C1`, in assay [3], the IC50 amounted to 100 µM.

Turning to `COc1cc2c(cc1C(N)=O)[C@]13C[C@H]4OCO[C@H]4C=C1CCN3CC2`, the IC50 in assay [1] is 94 µM. In assay [2], the outcome was inactive.
